Patent US7109200B2, “Carbamate derivatives, process for producing the same and use thereof” (Takeda Pharmaceutical Company Limited, priority 2000, dated 2006)

What was measured:
[1] = target: human FXa (Homo sapiens, UniProt P00742); assay: Human activated coagulation factor X (FXa) inhibiting activity; format: biochemical; details: substrate S-2765, 37° C., absorbance at 405 nm
Method: (1) Human Activated Coagulation Factor X (FXa) Inhibiting Activity
Method: A cuvette was charged with 225 μl of 0.05 M tris buffer (pH 8.3) containing 0.145 M sodium chloride and 2 mM calcium chloride, 5 μl of a sample (test compound dissolved in dimethyl sulfoxide) and 10 μl of human FXa (0.3 unit/ml), which were reacted at 37° C. for 10 minutes and then combined with 10 μl of a substrate (3 mM, S-2765) and further reacted at 37° C. for 10 minutes. Then the reaction was terminated by adding 25 μl of 50% aqueous acetic acid, and the change in the absorbance at 405 nm was determined using a spectrophotometer to calculate the concentration at which the FXa effect was inhibited by 50% (IC50).

[2] = test system: Human normal plasma; assay: In vitro clotting time measurement: prothrombin time (PT); format: biochemical; details: PT 2-fold extending concentration (CT2), rabbit brain-derived tissue thromboplastin
Method: (2) In vitro Clotting Time Measurement
(2-1) Prothrombin Time (PT) Measurement:
A PT-test WAKO (WAKO PURE CHEMICAL) was employed together with an automatic coagulometer (STA compact DIAGNOSTICA STAGO). 97 μl of Human normal plasma (fresh human plasma, FFP, SEKISUI KAGAKU KOGYO) was combined with 3 μl of a test substance and pre-incubated at 37° C. for 4 minutes. 50 μl of the plasma described above was combined with 100 μl of rabbit brain-derived tissue thromboplastin solution and the time for the clotting was measured. The test substance was used after dissolving in dimethyl sulfoxide (DMSO). A concentration required for 2-fold prolongation of the clotting time was calculated based on the clotting time observed when DMSO was added instead of the test substance.

Sequence of human FXa (P00742 235-488 limits assumed): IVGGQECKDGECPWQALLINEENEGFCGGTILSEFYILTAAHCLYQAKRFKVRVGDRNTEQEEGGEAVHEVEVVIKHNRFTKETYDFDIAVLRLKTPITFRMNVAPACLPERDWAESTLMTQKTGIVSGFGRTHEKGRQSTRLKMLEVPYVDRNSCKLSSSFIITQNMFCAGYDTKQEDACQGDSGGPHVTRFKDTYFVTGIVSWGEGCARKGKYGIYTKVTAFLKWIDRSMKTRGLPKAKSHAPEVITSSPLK
Sequence of human FXa (P00742 41-179 partner limits assumed): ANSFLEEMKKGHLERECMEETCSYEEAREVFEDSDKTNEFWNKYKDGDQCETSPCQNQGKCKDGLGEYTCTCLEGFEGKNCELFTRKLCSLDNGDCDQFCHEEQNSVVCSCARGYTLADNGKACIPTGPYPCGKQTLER

`CCOC(=O)NC1(CN2CCN(S(=O)(=O)c3ccc4cc(Cl)ccc4c3)CC2=O)CCN(c2ccncc2)CC1` [Example 1, 4-(6-Chloronaphthalene-2-sulfonyl)-1-[4-ethoxycarbonylamino-1-(4-pyridyl)-4-piperidylmethyl]-2-piperazinone] was tested, and the IC50 [1] was 4.6 nM and the “PT CT2” value [2] was 0.27 µM.
